Data as given in patent US20220043347A1, “ACTINIC RAY-SENSITIVE OR RADIATION-SENSITIVE RESIN COMPOSITION, RESIST FILM, PATTERN FORMING METHOD, AND METHOD FOR MANUFACTURING ELECTRONIC DEVICE” (FUJIFILM Corporation, priority 2019, published 2022).

Experiment: Acid dissociation constant (pKa) determined by computation (ACD/Labs Software Package 1; Gaussian 16 DFT where not calculable)
Details: acid generated from photoacid generator B
Source text: In the present specification, an acid dissociation constant (pKa) represents a pKa in an aqueous solution, and is specifically a value determined by computation from a value based on a Hammett's substituent constant and database of publicly known literature values, using the following software package 1. Any of the pKa values described in the present specification indicate values determined by computation using the software package.
Software Package 1: Advanced Chemistry Development (ACD/Labs) Software V 8.14 for Solaris (1994-2007 ACD/Labs).
As described above, the pKa in the present specification refers to a value determined by computation from a value based on a Hammett's substituent constant and database of publicly known literature values, using the software package 1, but in a case where the pKa cannot be calculated by the method, a value obtained by Gaussian 16 based on density functional theory (DFT) shall be adopted.
In addition, the pKa in the present specification refers to a “pKa in an aqueous solution” as described above, but in a case where the pKa in an aqueous solution cannot be calculated, a “pKa in a dimethyl sulfoxide (DMSO) solution” shall be adopted.
Furthermore, in the measurement of the acid dissociation constant (pKa) of an acid generated from the photoacid generator B, specifically, the pKa is a value determined by subjecting a compound formed by substituting each cationic moiety in the compounds B-1 to B-29 with […](for example, in a case of the compound B-1, a compound formed by substituting the triphenylsulfonium cation with H^+) to computation from a value based on a Hammett's substituent constant and database of publicly known literature values, using Software Package 1 of ACD/Labs, as described above. In addition, in a case where pKa could not be calculated by the method, a value obtained by Gaussian 16 based on density functional theory (DFT) was adopted.
In the following table, “pKa1” represents an acid dissociation constant of the first stage, “pKa2” represents an acid dissociation constant of the second stage, and “pKa3” represents an acid dissociation constant of the third stage. A smaller value of pKa means a higher acidity. […]
With `O=C(CC(F)(F)F)[N-]S(=O)(=O)C(F)(F)C(F)(F)C(F)(F)S(=O)(=O)[O-].c1ccc([S+](c2ccccc2)c2ccccc2)cc1.c1ccc([S+](c2ccccc2)c2ccccc2)cc1` [Compound B-1] the “Difference between acid dissociation constant a1 and acid dissociation constant a2” value was 3.17.
For `COc1ccc([S+](c2ccccc2)c2ccccc2)cc1.COc1ccc([S+](c2ccccc2)c2ccccc2)cc1.O=S(=O)([O-])C(F)(F)C(F)(F)C(F)(F)S(=O)(=O)[N-]C1CCCCC1` [Compound B-2], the “Difference between acid dissociation constant a1 and acid dissociation constant a2” value was 9.59.
For `O=C(O)C(F)(F)C(F)(F)C(F)(F)C(=O)OC12CC3CC(CC(COC(=O)C(F)(F)S(=O)(=O)O)(C3)C1)C2` [Compound B-3], the “Difference between acid dissociation constant a1 and acid dissociation constant a2” value was 2.92.
With `O=C(COC(=O)C(F)(F)S(=O)(=O)O)NC(=O)C(F)(F)F` [Compound B-4] the “Difference between acid dissociation constant a1 and acid dissociation constant a2” value was 9.23.
With `CS(=O)(=O)[N-]C(=O)C(F)(F)C(F)(F)C(F)(F)C(=O)OCC(F)S(=O)(=O)[O-].c1ccc([S+](c2ccccc2)c2ccccc2)cc1.c1ccc([S+](c2ccccc2)c2ccccc2)cc1` (stereo not drawn) [Compound B-5] the “Difference between acid dissociation constant a1 and acid dissociation constant a2” value was 2.55.
In the case of `COc1ccc([S+](c2ccccc2)c2ccccc2)cc1.COc1ccc([S+](c2ccccc2)c2ccccc2)cc1.O=C(OCCCS(=O)(=O)[O-])C(F)(F)S(=O)(=O)[O-]` [Compound B-6], the “Difference between acid dissociation constant a1 and acid dissociation constant a2” value is reported as 4.82.
With `CS(=O)(=O)NS(=O)(=O)CCCOC(=O)C(F)(F)S(=O)(=O)O` [Compound B-11] the “Difference between acid dissociation constant a1 and acid dissociation constant a2” value was 3.23.
For `CCCCC(CC)C(=O)NS(=O)(=O)C(F)(F)C(F)(F)C(F)(F)S(=O)(=O)NS(=O)(=O)C(F)(F)F` (stereo not drawn) [Compound B-12], the “Difference between acid dissociation constant a1 and acid dissociation constant a2” value was 11.4.
For `O=C([O-])CCCOC(=O)C(CS(=O)(=O)[O-])C(F)(F)F.O=S(=O)(c1ccc([S+](c2ccccc2)c2ccccc2)cc1)C1CCCCC1.O=S(=O)(c1ccc([S+](c2ccccc2)c2ccccc2)cc1)C1CCCCC1` [Compound B-14], the “Difference between acid dissociation constant a1 and acid dissociation constant a2” value was 3.63.
For `CC(C)(C#N)C(=O)[N-]S(=O)(=O)C(F)(F)C(F)(F)C(F)(F)S(=O)(=O)[N-]S(C)(=O)=O.Cc1ccc(-[s+]2c3ccccc3c3ccccc32)cc1.Cc1ccc(-[s+]2c3ccccc3c3ccccc32)cc1` [Compound B-15], the “Difference between acid dissociation constant a1 and acid dissociation constant a2” value was 2.79.
With `CC1(C)C2CCC1(CS(=O)(=O)[N-]S(=O)(=O)C(F)(F)C(F)(F)C(F)(F)S(=O)(=O)[O-])C(=O)C2.Cc1ccc([S+](c2ccccc2)c2ccccc2)cc1.Cc1ccc([S+](c2ccccc2)c2ccccc2)cc1` (stereo not drawn) [Compound B-16] the “Difference between acid dissociation constant a1 and acid dissociation constant a2” value was 0.74.
For `O=C(NS(=O)(=O)C(F)(F)C(F)(F)C(F)(F)S(=O)(=O)O)c1ccccc1I` [Compound B-22], the “Difference between acid dissociation constant a1 and acid dissociation constant a2” value was 2.97.
In the case of `CC1(OC(=O)c2cc(C(=O)NS(=O)(=O)C(F)(F)C(F)(F)C(F)(F)S(=O)(=O)NS(=O)(=O)C(F)(F)F)cc(C(=O)OC3(C)CCCC3)c2)CCCC1` [Compound B-23], the “Difference between acid dissociation constant a1 and acid dissociation constant a2” value is reported as 10.13.
For `Cc1cc([S+](c2ccc(C(F)(F)F)cc2)c2ccc(C(F)(F)F)cc2)cc(C)c1OCC(=O)OC(C)(C)C.Cc1cc([S+](c2ccc(C(F)(F)F)cc2)c2ccc(C(F)(F)F)cc2)cc(C)c1OCC(=O)OC(C)(C)C.Cc1cc([S+](c2ccc(C(F)(F)F)cc2)c2ccc(C(F)(F)F)cc2)cc(C)c1OCC(=O)OC(C)(C)C.O=C([N-]S(=O)(=O)C(F)(F)C(F)(F)C(F)(F)S(=O)(=O)[O-])c1ccc(OS(=O)(=O)C(F)(F)C(F)(F)C(F)(F)S(=O)(=O)[O-])cc1` [Compound B-25], the “Difference between acid dissociation constant a1 and acid dissociation constant a2” value was 2.53.
In the case of `CC(C)(C)OC(=O)c1cc(OS(=O)(=O)C(F)(F)S(=O)(=O)[O-])cc(C(=O)[N-]S(=O)(=O)C(F)(F)S(=O)(=O)[O-])c1.Cc1cc(C)cc([S+](c2cc(C)cc(C)c2)c2cc(C(F)(F)F)cc(C(F)(F)F)c2)c1.Cc1cc(C)cc([S+](c2cc(C)cc(C)c2)c2cc(C(F)(F)F)cc(C(F)(F)F)c2)c1.Cc1cc(C)cc([S+](c2cc(C)cc(C)c2)c2cc(C(F)(F)F)cc(C(F)(F)F)c2)c1` [Compound B-26], the “Difference between acid dissociation constant a1 and acid dissociation constant a2” value is reported as 4.99.
